Results from the supplement of paper PMC10307832.

Legend:
Experiment in all cases: relative viability (nuclei count vs DMSO), 5 days (fraction); higher = more cells survive
[1] = test system: HCC-15
Summary of the method: (§1)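 A single step with final 0.05% Triton X-100, 1% formaldehyde and 1 ug/ml Hoechst fixed the cells and stained nuclei 5 days after treatment. Lung cancer cell lines in 1536-well plates had been treated by pin tool the day after seeding with one drug alone or a fixed anchor-drug dose plus five library-drug doses (not always all listed) in √10 steps, and nuclei were counted on 4× images. Relative viability is the ratio of nuclei in treated wells to nuclei in vehicle wells, taken as the median of duplicate plates.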

[2] = test system: NCI-H1734
Summary of the method: as §1

[3] = test system: HARA
Summary of the method: as §1

[4] = test system: NCI-H2009
Summary of the method: as §1

[5] = test system: NCI-H1993
Summary of the method: as §1

[6] = test system: SW 1573
Summary of the method: as §1

[7] = test system: NCI-H1650
Summary of the method: as §1

[8] = test system: NCI-H2023
Summary of the method: as §1

[9] = test system: HCC-78
Summary of the method: as §1

[10] = test system: LOU-NH91
Summary of the method: as §1

[11] = test system: LCLC-97TM1
Summary of the method: as §1

[12] = test system: COR-L23
Summary of the method: as §1

[13] = test system: A-427
Summary of the method: as §1

[14] = test system: 201T
Summary of the method: as §1

[15] = test system: HCC-44
Summary of the method: as §1

[16] = test system: ChaGo-K-1
Summary of the method: as §1

[17] = test system: NCI-H441
Summary of the method: as §1

[18] = test system: RERF-LC-KJ
Summary of the method: as §1

[19] = test system: HCC-366
Summary of the method: as §1

[20] = test system: NCI-H2126
Summary of the method: as §1

[21] = test system: NCI-H460
Summary of the method: as §1

[22] = test system: NCI-H650
Summary of the method: as §1

[23] = test system: LCLC-103H
Summary of the method: as §1

Cc1cnc(-c2cnc(NCCNc3ccc(C#N)cn3)nc2-c2ccc(Cl)cc2Cl)[nH]1 + CC1(C)CCC(c2ccc(Cl)cc2)=C(CN2CCN(c3ccc(C(=O)NS(=O)(=O)c4ccc(N[C@H](CCN5CCOCC5)CSc5ccccc5)c(S(=O)(=O)C(F)(F)F)c4)cc3)CC2)C1 [Navitoclax] (partner 0.5 µM)
relative viability ([1]; first compound 0.08 µM): 0.737 | relative viability ([1]; first compound 0.253 µM): 0.622 | relative viability ([1]; first compound 0.8 µM): 0.65 | relative viability ([1]; first compound 2.53 µM): 0.578 | relative viability ([2]; first compound 0.08 µM): 0.946 | relative viability ([2]; first compound 0.253 µM): 0.784 | relative viability ([2]; first compound 0.8 µM): 0.829 | relative viability ([2]; first compound 2.53 µM): 0.788 | relative viability ([3]; first compound 0.08 µM): 1.13 | relative viability ([3]; first compound 0.253 µM): 1.12 | relative viability ([3]; first compound 0.8 µM): 1.16 | relative viability ([3]; first compound 2.53 µM): 1.19 | relative viability ([4]; first compound 0.08 µM): 1.15 | relative viability ([4]; first compound 0.253 µM): 1.16 | relative viability ([4]; first compound 0.8 µM): 1.28 | relative viability ([4]; first compound 2.53 µM): 1.06 | relative viability ([5]; first compound 0.08 µM): 0.976 | relative viability ([5]; first compound 0.253 µM): 0.906 | relative viability ([5]; first compound 0.8 µM): 0.996 | relative viability ([5]; first compound 2.53 µM): 0.882 | relative viability ([6]; first compound 0.08 µM): 1.29 | relative viability ([6]; first compound 0.253 µM): 0.801 | relative viability ([6]; first compound 0.8 µM): 1.01 | relative viability ([6]; first compound 2.53 µM): 0.685 | relative viability ([7]; first compound 0.08 µM): 1.13 | relative viability ([7]; first compound 0.253 µM): 1.05 | relative viability ([7]; first compound 0.8 µM): 1.42 | relative viability ([7]; first compound 2.53 µM): 1.21 | relative viability ([8]; first compound 0.08 µM): 1.01 | relative viability ([8]; first compound 0.253 µM): 0.977 | relative viability ([8]; first compound 0.8 µM): 1.08 | relative viability ([8]; first compound 2.53 µM): 1.09 | relative viability ([9]; first compound 0.08 µM): 0.955 | relative viability ([9]; first compound 0.253 µM): 0.661 | relative viability ([9]; first compound 0.8 µM): 0.701 | relative viability ([9]; first compound 2.53 µM): 0.757 | relative viability ([10]; first compound 0.08 µM): 0.821 | relative viability ([10]; first compound 0.253 µM): 0.679 | relative viability ([10]; first compound 0.8 µM): 0.611 | relative viability ([10]; first compound 2.53 µM): 0.633 | relative viability ([11]; first compound 0.08 µM): 0.41 | relative viability ([11]; first compound 0.253 µM): 0.377 | relative viability ([11]; first compound 0.8 µM): 0.42 | relative viability ([11]; first compound 2.53 µM): 0.4 | relative viability ([12]; first compound 0.08 µM): 1.07 | relative viability ([12]; first compound 0.253 µM): 1.03 | relative viability ([12]; first compound 0.8 µM): 1.09 | relative viability ([12]; first compound 2.53 µM): 1.06 | relative viability ([13]; first compound 0.08 µM): 0.939 | relative viability ([13]; first compound 0.253 µM): 0.947 | relative viability ([13]; first compound 0.8 µM): 0.973 | relative viability ([13]; first compound 2.53 µM): 0.925 | relative viability ([14]; first compound 0.08 µM): 1.19 | relative viability ([14]; first compound 0.253 µM): 1.17 | relative viability ([14]; first compound 0.8 µM): 1.2 | relative viability ([14]; first compound 2.53 µM): 1.23 | relative viability ([15]; first compound 0.08 µM): 1.05 | relative viability ([15]; first compound 0.253 µM): 0.792 | relative viability ([15]; first compound 0.8 µM): 0.971 | relative viability ([15]; first compound 2.53 µM): 1.03 | relative viability ([16]; first compound 0.08 µM): 0.791 | relative viability ([16]; first compound 0.253 µM): 0.863 | relative viability ([16]; first compound 0.8 µM): 0.516 | relative viability ([16]; first compound 2.53 µM): 0.856 | relative viability ([17]; first compound 0.08 µM): 0.719 | relative viability ([17]; first compound 0.253 µM): 0.535 | relative viability ([17]; first compound 0.8 µM): 0.745 | relative viability ([17]; first compound 2.53 µM): 0.57 | relative viability ([18]; first compound 0.08 µM): 1.08 | relative viability ([18]; first compound 0.253 µM): 0.626 | relative viability ([18]; first compound 0.8 µM): 0.905 | relative viability ([18]; first compound 2.53 µM): 0.776 | relative viability ([19]; first compound 0.08 µM): 1.04 | relative viability ([19]; first compound 0.253 µM): 1.02 | relative viability ([19]; first compound 0.8 µM): 1.09 | relative viability ([19]; first compound 2.53 µM): 0.89 | relative viability ([20]; first compound 0.08 µM): 0.881 | relative viability ([20]; first compound 0.253 µM): 0.897 | relative viability ([20]; first compound 0.8 µM): 0.878 | relative viability ([20]; first compound 2.53 µM): 0.835 | relative viability ([21]; first compound 0.08 µM): 1.16 | relative viability ([21]; first compound 0.253 µM): 1.12 | relative viability ([21]; first compound 0.8 µM): 1.17 | relative viability ([21]; first compound 2.53 µM): 1.04

Cc1cnc(-c2cnc(NCCNc3ccc(C#N)cn3)nc2-c2ccc(Cl)cc2Cl)[nH]1 + COc1cc2c(Oc3ccc(NC(=O)C4(C(=O)Nc5ccc(F)cc5)CC4)cc3F)ccnc2cc1OCCCN1CCOCC1 [Foretinib] (partner 0.25 µM)
relative viability ([1]; first compound 0.08 µM): 1.12 | relative viability ([1]; first compound 0.253 µM): 0.895 | relative viability ([1]; first compound 0.8 µM): 1.02 | relative viability ([1]; first compound 2.53 µM): 0.941 | relative viability ([2]; first compound 0.08 µM): 0.926 | relative viability ([2]; first compound 0.253 µM): 0.762 | relative viability ([2]; first compound 0.8 µM): 0.834 | relative viability ([2]; first compound 2.53 µM): 0.83 | relative viability ([3]; first compound 0.08 µM): 1 | relative viability ([3]; first compound 0.253 µM): 0.773 | relative viability ([3]; first compound 0.8 µM): 0.818 | relative viability ([3]; first compound 2.53 µM): 0.877 | relative viability ([4]; first compound 0.08 µM): 1.27 | relative viability ([4]; first compound 0.253 µM): 1.21 | relative viability ([4]; first compound 0.8 µM): 1.35 | relative viability ([4]; first compound 2.53 µM): 1.03 | relative viability ([5]; first compound 0.08 µM): 0.902 | relative viability ([5]; first compound 0.253 µM): 0.652 | relative viability ([5]; first compound 0.8 µM): 0.754 | relative viability ([5]; first compound 2.53 µM): 0.889 | relative viability ([22]; first compound 0.08 µM): 1.07 | relative viability ([22]; first compound 0.253 µM): 0.994 | relative viability ([22]; first compound 0.8 µM): 1.09 | relative viability ([22]; first compound 2.53 µM): 1.03 | relative viability ([6]; first compound 0.08 µM): 0.929 | relative viability ([6]; first compound 0.253 µM): 0.87 | relative viability ([6]; first compound 0.8 µM): 0.907 | relative viability ([6]; first compound 2.53 µM): 0.769 | relative viability ([7]; first compound 0.08 µM): 1.37 | relative viability ([7]; first compound 0.253 µM): 1.22 | relative viability ([7]; first compound 0.8 µM): 1.25 | relative viability ([7]; first compound 2.53 µM): 1.01 | relative viability ([8]; first compound 0.08 µM): 0.709 | relative viability ([8]; first compound 0.8 µM): 0.938 | relative viability ([8]; first compound 2.53 µM): 1.18 | relative viability ([9]; first compound 0.08 µM): 0.471 | relative viability ([9]; first compound 0.253 µM): 0.488 | relative viability ([9]; first compound 0.8 µM): 0.525 | relative viability ([9]; first compound 2.53 µM): 0.568 | relative viability ([10]; first compound 0.08 µM): 0.975 | relative viability ([10]; first compound 0.253 µM): 0.901 | relative viability ([10]; first compound 0.8 µM): 0.96 | relative viability ([10]; first compound 2.53 µM): 0.942 | relative viability ([11]; first compound 0.08 µM): 0.917 | relative viability ([11]; first compound 0.8 µM): 0.878 | relative viability ([11]; first compound 2.53 µM): 0.86 | relative viability ([12]; first compound 0.08 µM): 0.853 | relative viability ([12]; first compound 0.253 µM): 0.877 | relative viability ([12]; first compound 0.8 µM): 1.08 | relative viability ([12]; first compound 2.53 µM): 0.951 | relative viability ([13]; first compound 0.08 µM): 1.13 | relative viability ([13]; first compound 0.253 µM): 1.01 | relative viability ([13]; first compound 0.8 µM): 0.861 | relative viability ([13]; first compound 2.53 µM): 1.07 | relative viability ([14]; first compound 0.08 µM): 1.19 | relative viability ([14]; first compound 0.253 µM): 0.807 | relative viability ([14]; first compound 0.8 µM): 1.16 | relative viability ([14]; first compound 2.53 µM): 1.14 | relative viability ([16]; first compound 0.08 µM): 0.941 | relative viability ([16]; first compound 0.253 µM): 0.84 | relative viability ([16]; first compound 0.8 µM): 0.945 | relative viability ([16]; first compound 2.53 µM): 0.921 | relative viability ([23]; first compound 0.08 µM): 0.751 | relative viability ([23]; first compound 0.253 µM): 0.734 | relative viability ([23]; first compound 0.8 µM): 0.745 | relative viability ([23]; first compound 2.53 µM): 0.79 | relative viability ([17]; first compound 0.08 µM): 1.2 | relative viability ([17]; first compound 0.253 µM): 0.926 | relative viability ([17]; first compound 0.8 µM): 1.01 | relative viability ([17]; first compound 2.53 µM): 0.958 | relative viability ([18]; first compound 0.08 µM): 0.906 | relative viability ([18]; first compound 0.253 µM): 0.796 | relative viability ([18]; first compound 0.8 µM): 0.826 | relative viability ([18]; first compound 2.53 µM): 0.832 | relative viability ([19]; first compound 0.08 µM): 1.01 | relative viability ([19]; first compound 0.253 µM): 0.964 | relative viability ([19]; first compound 0.8 µM): 0.892 | relative viability ([19]; first compound 2.53 µM): 0.922 | relative viability ([20]; first compound 0.08 µM): 1.33 | relative viability ([20]; first compound 0.253 µM): 1.22 | relative viability ([20]; first compound 0.8 µM): 1 | relative viability ([20]; first compound 2.53 µM): 1.08 | relative viability ([21]; first compound 0.08 µM): 1.1 | relative viability ([21]; first compound 0.253 µM): 0.947 | relative viability ([21]; first compound 0.8 µM): 0.981 | relative viability ([21]; first compound 2.53 µM): 0.885
